Assay results as given in patent US11331369B2, “Endoparasitic depsipeptides” (Zoetis Services LLC, priority 2017, dated 2022).

system: microfilariae of Dirofilaria immitis; test: Dirofilaria immitis, Microfilaria (DiMF) In vitro Assay; type: cell-based; settings: 72 h, read-out: DiMF Minimum Effective Dose (MED), approximately 72 hours incubation, microfilariae assessed for survival or paralysis

Row | Structure (SMILES) | minimal effective concentration
1 | CC(C)C[C@H]1C(=O)O[C@H](Cc2ccc(Cn3ccc(C#N)n3)cc2)C(=O)N(C)[C@@H](CC(C)C)C(=O)O[C@H](C)C(=O)N(C)[C@@H](CC(C)C)C(=O)O[C@H](Cc2ccc(Cn3ccc(C#N)n3)cc2)C(=O)N(C)[C@@H](CC(C)C)C(=O)O[C@H](C)C(=O)N1C [Example 1b-103, 1,1′-(((((2R,5S,8R,11S,14R,17S,20R,23S)-5,11,17,23-tetraisobutyl-4,8,10,16,20,22-hexamethyl-3,6,9,12,15,18,21,24-octaoxo-1,7,13,19-tetraoxa-4,10,16,22-tetraazacyclotetracosane-2,14-diyl)bis(methylene))bis(4,1-phenylene))bis(methylene))bis(1H-pyrazole-3-carbonitrile)] | 0.001 to 0.01 µM
2 | CC(C)C[C@H]1C(=O)O[C@H](Cc2ccc(Cn3ccc(N4CCOCC4)n3)cc2)C(=O)N(C)[C@@H](CC(C)C)C(=O)O[C@H](C)C(=O)N(C)[C@@H](CC(C)C)C(=O)O[C@H](Cc2ccc(Cn3ccc(N4CCOCC4)n3)cc2)C(=O)N(C)[C@@H](CC(C)C)C(=O)O[C@H](C)C(=O)N1C [Example 1b-105, (3S,6R,9S,12R,15S,18R,21S,24R)-3,9,15,21-tetraisobutyl-4,6,10,16,18,22-hexamethyl-12,24-bis(4-((3-morpholino-1H-pyrazol-1-yl)methyl)benzyl)-1,7,13,19-tetraoxa-4,10,16,22-tetraazacyclotetracosan-2,5,8,11,14,17,20,23-octaone] | 0.001 to 0.01 µM
3 | CC(C)C[C@H]1C(=O)O[C@H](Cc2ccc(Cn3ccc(C4CCC4)n3)cc2)C(=O)N(C)[C@@H](CC(C)C)C(=O)O[C@H](C)C(=O)N(C)[C@@H](CC(C)C)C(=O)O[C@H](Cc2ccc(Cn3ccc(C4CCC4)n3)cc2)C(=O)N(C)[C@@H](CC(C)C)C(=O)O[C@H](C)C(=O)N1C [Example 1b-106, (3S,6R,9S,12R,15S,18R,21S,24R)-6,18-bis(4-((3-cyclobutyl-1H-pyrazol-1-yl)methyl)benzyl)-3,9,15,21-tetraisobutyl-4,10,12,16,22,24-hexamethyl-1,7,13,19-tetraoxa-4,10,16,22-tetraazacyclotetracosan-2,5,8,11,14,17,20,23-octaone] | 0.01 to 0.1 µM
4 | CC(C)C[C@H]1C(=O)O[C@H](Cc2ccc(Cn3ccc(-c4ccoc4)n3)cc2)C(=O)N(C)[C@@H](CC(C)C)C(=O)O[C@H](C)C(=O)N(C)[C@@H](CC(C)C)C(=O)O[C@H](Cc2ccc(Cn3ccc(-c4ccoc4)n3)cc2)C(=O)N(C)[C@@H](CC(C)C)C(=O)O[C@H](C)C(=O)N1C [Example 1b-111, (3S,6R,9S,12R,15S,18R,21S,24R)-6,18-bis(4-((3-(furan-3-yl)-1H-pyrazol-1-yl)methyl)benzyl)-3,9,15,21-tetraisobutyl-4,10,12,16,22,24-hexamethyl-1,7,13,19-tetraoxa-4,10,16,22-tetraazacyclotetracosan-2,5,8,11,14,17,20,23-octaone] | 0.01 to 0.1 µM
5 | CC(C)C[C@H]1C(=O)O[C@H](Cc2ccc(Cn3cc(C4CCOCC4)cn3)cc2)C(=O)N(C)[C@@H](CC(C)C)C(=O)O[C@H](C)C(=O)N(C)[C@@H](CC(C)C)C(=O)O[C@H](Cc2ccc(Cn3cc(C4CCOCC4)cn3)cc2)C(=O)N(C)[C@@H](CC(C)C)C(=O)O[C@H](C)C(=O)N1C [Example 1b-116, (3S,6R,9S,12R,15S,18R,21S,24R)-3,9,15,21-tetraisobutyl-4,6,10,16,18,22-hexamethyl-12,24-bis(4-((4-(tetrahydro-2H-pyran-4-yl)-1H-pyrazol-1-yl)methyl)benzyl)-1,7,13,19-tetraoxa-4,10,16,22-tetraazacyclotetracosan-2,5,8,11,14,17,20,23-octaone] | 0.01 to 0.1 µM
6 | Cc1nn(Cc2ccc(C[C@H]3OC(=O)[C@H](CC(C)C)N(C)C(=O)[C@@H](C)OC(=O)[C@H](CC(C)C)N(C)C(=O)[C@@H](Cc4ccc(Cn5nc(C)c(C#N)c5C)cc4)OC(=O)[C@H](CC(C)C)N(C)C(=O)[C@@H](C)OC(=O)[C@H](CC(C)C)N(C)C3=O)cc2)c(C)c1C#N [Example 1b-117, 1,1′-(((((2R,5S,8R,11S,14R,17S,20R,23S)-5,11,17,23-tetraisobutyl-4,8,10,16,20,22-hexamethyl-3,6,9,12,15,18,21,24-octaoxo-1,7,13,19-tetraoxa-4,10,16,22-tetraazacyclotetracosane-2,14-diyl)bis(methylene))bis(4,1-phenylene))bis(methylene))bis(3,5-dimethyl-1H-pyrazole-4-carbonitrile)] | 0.01 to 0.1 µM
7 | CC(C)C[C@H]1C(=O)O[C@H](Cc2ccc(Cn3ccc(-c4ccccn4)n3)cc2)C(=O)N(C)[C@@H](CC(C)C)C(=O)O[C@H](C)C(=O)N(C)[C@@H](CC(C)C)C(=O)O[C@H](Cc2ccc(Cn3ccc(-c4ccccn4)n3)cc2)C(=O)N(C)[C@@H](CC(C)C)C(=O)O[C@H](C)C(=O)N1C [Example 1b-120, (3S,6R,9S,12R,15S,18R,21S,24R)-3,9,15,21-tetraisobutyl-4,6,10,16,18,22-hexamethyl-12,24-bis(4-((3-(pyridin-2-yl)-1H-pyrazol-1-yl)methyl)benzyl)-1,7,13,19-tetraoxa-4,10,16,22-tetraazacyclotetracosan-2,5,8,11,14,17,20,23-octaone] | 0.01 to 0.1 µM
8 | Cc1c(CO)nn(Cc2ccc(C[C@H]3OC(=O)[C@H](CC(C)C)N(C)C(=O)[C@@H](C)OC(=O)[C@H](CC(C)C)N(C)C(=O)[C@@H](Cc4ccc(Cn5nc(CO)c(C)c5C(F)(F)F)cc4)OC(=O)[C@H](CC(C)C)N(C)C(=O)[C@@H](C)OC(=O)[C@H](CC(C)C)N(C)C3=O)cc2)c1C(F)(F)F [Example 1b-124, (3S,6R,9S,12R,15S,18R,21S,24R)-6,18-bis(4-((3-(hydroxymethyl)-4-methyl-5-(trifluoromethyl)-1H-pyrazol-1-yl)methyl)benzyl)-3,9,15,21-tetraisobutyl-4,10,12,16,22,24-hexamethyl-1,7,13,19-tetraoxa-4,10,16,22-tetraazacyclotetracosan-2,5,8,11,14,17,20,23-octaone] | 0.01 to 0.1 µM
9 | CCc1nn(Cc2ccc(C[C@H]3OC(=O)[C@H](CC(C)C)N(C)C(=O)[C@@H](C)OC(=O)[C@H](CC(C)C)N(C)C(=O)[C@@H](Cc4ccc(Cn5nc(CC)c(N)c5CC)cc4)OC(=O)[C@H](CC(C)C)N(C)C(=O)[C@@H](C)OC(=O)[C@H](CC(C)C)N(C)C3=O)cc2)c(CC)c1N [Example 1b-133, (3S,6R,9S,12R,15S,18R,21S,24R)-6,18-bis(4-((4-amino-3,5-diethyl-1H-pyrazol-1-yl)methyl)benzyl)-3,9,15,21-tetraisobutyl-4,10,12,16,22,24-hexamethyl-1,7,13,19-tetraoxa-4,10,16,22-tetraazacyclotetracosan-2,5,8,11,14,17,20,23-octaone] | 0.01 to 0.1 µM
10 | Cc1nn(Cc2ccc(C[C@H]3OC(=O)[C@H](CC(C)C)N(C)C(=O)[C@@H](C)OC(=O)[C@H](CC(C)C)N(C)C(=O)[C@@H](Cc4ccc(Cn5cc(C#N)c(C)n5)cc4)OC(=O)[C@H](CC(C)C)N(C)C(=O)[C@@H](C)OC(=O)[C@H](CC(C)C)N(C)C3=O)cc2)cc1C#N [Example 1b-135, 1,1′-(((((2R,5S,8R,11S,14R,17S,20R,23S)-5,11,17,23-tetraisobutyl-4,8,10,16,20,22-hexamethyl-3,6,9,12,15,18,21,24-octaoxo-1,7,13,19-tetraoxa-4,10,16,22-tetraazacyclotetracosane-2,14-diyl)bis(methylene))bis(4,1-phenylene))bis(methylene))bis(3-methyl-1H-pyrazole-4-carbonitrile)] | 0.001 to 0.01 µM
11 | CC(C)C[C@H]1C(=O)O[C@H](Cc2ccc(Cn3ccc(-c4ccncc4)n3)cc2)C(=O)N(C)[C@@H](CC(C)C)C(=O)O[C@H](C)C(=O)N(C)[C@@H](CC(C)C)C(=O)O[C@H](Cc2ccc(Cn3ccc(-c4ccncc4)n3)cc2)C(=O)N(C)[C@@H](CC(C)C)C(=O)O[C@H](C)C(=O)N1C [Example 1b-138, (3S,6R,9S,12R,15S,18R,21S,24R)-3,9,15,21-tetraisobutyl-4,6,10,16,18,22-hexamethyl-12,24-bis(4-((3-(pyridin-4-yl)-1H-pyrazol-1-yl)methyl)benzyl)-1,7,13,19-tetraoxa-4,10,16,22-tetraazacyclotetracosan-2,5,8,11,14,17,20,23-octaone] | 0.01 to 0.1 µM
12 | CC(C)C[C@H]1C(=O)O[C@H](Cc2ccc(Cn3ccc(-c4cccnc4)n3)cc2)C(=O)N(C)[C@@H](CC(C)C)C(=O)O[C@H](C)C(=O)N(C)[C@@H](CC(C)C)C(=O)O[C@H](Cc2ccc(Cn3ccc(-c4cccnc4)n3)cc2)C(=O)N(C)[C@@H](CC(C)C)C(=O)O[C@H](C)C(=O)N1C [Example 1b-139, (3S,6R,9S,12R,15S,18R,21S,24R)-3,9,15,21-tetraisobutyl-4,6,10,16,18,22-hexamethyl-12,24-bis(4-((3-(pyridin-3-yl)-1H-pyrazol-1-yl)methyl)benzyl)-1,7,13,19-tetraoxa-4,10,16,22-tetraazacyclotetracosan-2,5,8,11,14,17,20,23-octaone] | 0.01 to 0.1 µM
13 | CC(C)C[C@H]1C(=O)O[C@H](Cc2ccc(Cn3cc(OC(F)F)cn3)cc2)C(=O)N(C)[C@@H](CC(C)C)C(=O)O[C@H](C)C(=O)N(C)[C@@H](CC(C)C)C(=O)O[C@H](Cc2ccc(Cn3cc(OC(F)F)cn3)cc2)C(=O)N(C)[C@@H](CC(C)C)C(=O)O[C@H](C)C(=O)N1C [Example 1b-140, (3S,6R,9S,12R,15S,18R,21S,24R)-6,18-bis(4-((4-(difluoromethoxy)-1H-pyrazol-1-yl)methyl)benzyl)-3,9,15,21-tetraisobutyl-4,10,12,16,22,24-hexamethyl-1,7,13,19-tetraoxa-4,10,16,22-tetraazacyclotetracosan-2,5,8,11,14,17,20,23-octaone] | 0.01 to 0.1 µM
14 | CC(C)C[C@H]1C(=O)O[C@H](Cc2ccc(Cn3cc(OC4CCC4)cn3)cc2)C(=O)N(C)[C@@H](CC(C)C)C(=O)O[C@H](C)C(=O)N(C)[C@@H](CC(C)C)C(=O)O[C@H](Cc2ccc(Cn3cc(OC4CCC4)cn3)cc2)C(=O)N(C)[C@@H](CC(C)C)C(=O)O[C@H](C)C(=O)N1C [Example 1b-141, (3S,6R,9S,12R,15S,18R,21S,24R)-6,18-bis(4-((4-cyclobutoxy-1H-pyrazol-1-yl)methyl)benzyl)-3,9,15,21-tetraisobutyl-4,10,12,16,22,24-hexamethyl-1,7,13,19-tetraoxa-4,10,16,22-tetraazacyclotetracosan-2,5,8,11,14,17,20,23-octaone] | 0.01 to 0.1 µM
